Consider 14 compounds from PubChem BioAssay AID1963420 (Molecular Pharmacology Branch, DTP, NCI, 2024).

Structures are written as SMILES. Where “and” joins values, the source holds several entries; their conditions need not be identical. Equal values may be shown once.

This experiment has as its system 494315-158-R-J1-PDC complex spheroid growth, percent test/control. The experiment in a line: Anticancer human tumor 494315-158-R-J1-PDC patient-derived soft tissue sarcoma cell line growth inhibition [Asc]. Conditions: for viability, T/C: stronger effect = lower value. The protocol: Multicellular complex tumor spheroid response to apoptosis pathway targeting inhibitors Alrizomadlin, Pelcitoclax, and Dasminapant in combination with a variety of drugs and investigational agents in selected tumor cell lines
The MDM2 inhibitor alrizomadlin, the Bcl-2/Bcl-xL inhibitor pelcitoclax, and the IAPs inhibitor dasminapant were evaluated both individually and in combination with standard of care and investigational anticancer small molecules within a complex spheroid model of solid tumors. . Complex spheroids include a stromal component modeled by human endothelial cells (HUVEC) and fibroblasts modeled by human mesenchymal stem cells (MSCs). The concentration ranges selected for each drug and investigational agent were based upon clinically achievable concentrations if the clinical Cmax of the agent was known.
Compounds. The drugs and investigational agents: alrizomadlin (APG-115; NSC831270), pelcitoclax (APG-1252; NSC835773), dasminapant (APG-1387;NSC834197), TAK-243 (NSC785004), copanlisib (NSC809693), olaparib (NSC753686), talazoparib (NSC767125), cobimetinib (NSC 768068), eltanexor (KPT-8602, NSC 794443), abemaciclib (NSC 768073), sotorasib (NSC818433), adagrasib (NSC 831453), MRTX-1133 (NSC 836407), Iadademestat (ORY1001, NSC 806812), and RMC-4630 (NSC839698), were obtained from the NCI Developmental Therapeutics Program Chemical Repository. The FDA-approved anticancer drug set is available from the Developmental Therapeutics Program at https://dtp.cancer.gov/organization/dscb/obtaining/available plates.htm. […] The stock solutions were prepared in dimethyl sulfoxide (DMSO, Sigma-Aldrich, St. Louis, MO, cat. D2650) at 800-fold the tested concentration and stored at -70 degrees C prior to their use. All drugs and investigational agents were tested over a range starting from a high concentration at or near the clinical Cmax and decreasing in half-log increments. If the clinical Cmax for an agent had not been determined, the highest concentration tested was 10 microM.
The patient-derived cancer (PDC) cell lines include five colon adenocarcinomas: 186277-243-T-J2-PDC, 616215-338-R-J1-PDC, 439559-082-T-J2-PDC, 463943-066-T-J2-PDC, and 519858-162-T-J1-PDC; three pancreatic carcinomas: 323965-272-R-J2-PDC, 521955-158-R6-J3-PDC, and 521955-158-R2-J5-PDC; two uterine sarcomas: 327498-152-R-J2-PDC and 993429-296-R-J1-PDC; two rhabdomyosarcomas: 755483-174-R-J1-PDC and 772245-204-R-J1-PDC; two soft tissue sarcomas: 126254-015-R-J1-PDC and 494315-158-R-J1-PDC; two malignant fibrous histiocytomas: 317291-083-R-J1-PDC and 596521-263-R-J1-PDC; two breast carcinomas: 171881-019-R-J1-PDC and 885512-296-R-J2-PDC; and one ovarian carcinoma: 6556581-035-R-J-PDC were obtained from the NCI PDMR, (https://pdmr.cancer.gov). The established cell lines HSSY-2 synovial sarcoma (RRID:CVCL 8719), SYO-1 synovial sarcoma (RRID:CVCL_7146), MPNST malignant peripheral neural sheath tumor were obtained from the Sloan Kettering Institute. The following established cell lines were purchased from the American Type Culture Collection (ATCC, Manassas, VA), Sor the received from the NCI repository:, PANC-1 pancreatic carcinoma (CRL-1469, RRID:CVCL_0480), OVCAR-5 ovarian carcinoma (RRID:CVCL_1628), OVCAR-8 ovarian carcinoma (RRID:CVCL_1629), , MCF-7 breast carcinoma (CRL-12584, RRID:CVCL_0031), MDA-MB-231 breast carcinoma (CRL-12532, RRID:CVCL_0062), NCI-H1876 small cell lung carcinoma (CRL-5902, RRID:CVCL_1503), NCI-H510A small cell lung carcinoma (HTB-184, RRID:CVCL_1565), NCI-H1417 (CRL-5869, RRID:CVCL_1469), and NCI-H196 small cell lung carcinoma (CRL-5823, RRID:CVCL_1509). Dr. Peter Houghton (Greehey Children's Cancer Research Institute, University of Texas Health Science Center, San Antonio, TX) provided Rh-18 rhabdomyosarcoma (RRID:CVCL_1659). Pooled donor human umbilical vein endothelial cells (HUVEC, Lonza, cat. CC-2519) and human mesenchymal stem cells (hMSC, Lonza, cat. PT-2501) were purchased from Lonza (Walkersville, MD).
Cell Culture. […]

[1] abbreviates: compound alone, run of 09/27/2022.
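Note: compound exposure lasted seven days after spheroids formed for three days.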

The viability, T/C is the ratio of treated to control. By IC50 is commonly meant the concentration at which inhibition is half-maximal. `C#Cc1c(F)ccc2cc(O)cc(-c3ncc4c(N5CC6CCC(C5)N6)nc(OCC56CCCN5CC(F)C6)nc4c3F)c12` (stereo not drawn): the viability, T/C reads like this: (compound 0.0316 µM) 107% and 98.9% and 87.7%; (compound 0.1 µM) 109% and 102% and 108%; (compound 0.316 µM) 107% and 98.4% and 99.9%; (compound 1 µM) 107% and 104% and 95.3%; (compound 3.16 µM) 120% and 97.1% and 100%; (compound 10 µM) 103% and 86.4% and 91.4%. Further, under “curve of compound”, the IC50 was over 10000 nM.
As for `C=C(F)C(=O)N1CCN(c2nc(OCC3CCCN3C)nc3c2CCN(c2cccc4cccc(Cl)c24)C3)CC1CC#N` (stereo not drawn), the viability, T/C was 89.2% and 99.6% and 84.3% (compound 0.0316 µM); 92.5% and 97.5% and 96.5% (compound 0.1 µM); 88.7% and 82.5% and 97.6% (compound 0.316 µM); 84.9% and 84.5% and 86.7% (compound 1 µM); 62% and 51.7% and 68.6% (compound 3.16 µM); 0.23% and 0.25% and 0.24% (compound 10 µM). The IC50 (curve of compound) was 3950 nM and 3360 nM and 4310 nM.
As for `C=CC(=O)N1CCN(c2nc(=O)n(-c3c(C)ccnc3C(C)C)c3nc(-c4c(O)cccc4F)c(F)cc23)C(C)C1` (stereo not drawn), the viability, T/C reads like this: (compound 0.0316 µM) 105% and 116% and 107%; (compound 0.1 µM) 109% and 108% and 91.3%; (compound 0.316 µM) 103% and 101% and 104%; (compound 1 µM) 113% and 112% and 105%; (compound 3.16 µM) 112% and 113% and 101%; (compound 10 µM) 98.8% and 110% and 109%. Besides, the IC50 (curve of compound) was over 10000 nM.
With `CCN1C(C(=O)NC23CCC(C(=O)O)(CC2)CC3)C(c2cccc(Cl)c2F)C2(C(=O)Nc3cc(Cl)ccc32)C12CCCCC2` (stereo not drawn), the viability, T/C (compound 0.00949 µM) is 86.2% and 96.4%. Further, the IC50 was over 3000 nM under setting [1] and over 3000 nM (curve of compound).
As for `CCN1CCN(Cc2ccc(Nc3ncc(F)c(-c4cc(F)c5nc(C)n(C(C)C)c5c4)n3)nc2)CC1`, the viability, T/C (compound 0.00316 µM) was 86.4% and 118% and 98.1%; the viability, T/C (compound 0.01 µM) was 95.3% and 99.7% and 103%; the viability, T/C (compound 0.0316 µM) was 97.3% and 110% and 101%; the viability, T/C (compound 0.1 µM) was 94.9% and 96.2% and 93.2%; the viability, T/C (compound 0.316 µM) is 86.4% and 92.8% and 116%; the viability, T/C (compound 1 µM) was 87% and 91.4% and 104%. The IC50 (curve of compound) was over 1000 nM.
In the case of `CNC(C)C(=O)NC1CN(S(=O)(=O)c2cccc(S(=O)(=O)N3CCC4CCC(C(=O)NC(c5ccccc5)c5ccccc5)N4C(=O)C(NC(=O)C(C)NC)C3)c2)CCC2CCC(C(=O)NC(c3ccccc3)c3ccccc3)N2C1=O` (stereo not drawn), the viability, T/C by setting is: (compound 0.00316 µM) 79% and 74.7%; (compound 0.01 µM) 69.1% [middle of 15 runs]; (compound 0.0316 µM) 58.5% [middle of 15 runs]; (compound 0.1 µM) 51.9% [middle of 15 runs]; (compound 0.316 µM) 45% [middle of 15 runs]; (compound 1 µM) 39.2% [middle of 15 runs]. In addition, the IC50 (curve of compound) is 46.1 nM and 28.9 nM.
For the compound `COc1c(OCCCN2CCOCC2)ccc2c3n(c(=NC(=O)c4cnc(N)nc4)nc12)CCN3`, the viability, T/C is, setting by setting: (compound 0.00316 µM) 87.8% and 87% and 82.3%; (compound 0.01 µM) 79.6% and 80.4% and 82.8%; (compound 0.0316 µM) 56.8% and 58.9% and 54.3%; (compound 0.1 µM) 37% and 32% and 34%; (compound 0.316 µM) 20.7% and 21.1% and 18%; (compound 1 µM) 16.9% and 20.5% and 16.8%. In addition, the 50% inhibitory concentration (IC50) (curve of compound) was 48 nM and 46 nM and 44.1 nM.
For the compound `Cc1c(S(C)(=O)=O)c(-c2cc(F)cc(N3CCN(c4ccc(NS(=O)(=O)c5ccc(NC(CCN6CCC(C(=O)OCCCP(=O)(O)O)CC6)CSc6ccccc6)c(S(=O)(=O)C(F)(F)F)c5)cc4)CC3)c2)c(-c2ccc(Cl)cc2)n1C(C)C` (stereo not drawn), the viability, T/C (compound 0.1 µM) was 77.8% [middle of 14 runs]; the viability, T/C (compound 0.316 µM) is 71.6% [middle of 14 runs]; the viability, T/C (compound 1 µM) is 65% [middle of 14 runs]; the viability, T/C (compound 3.16 µM) was 52.8% [middle of 14 runs]; the viability, T/C (compound 10 µM) is 73.2% [middle of 14 runs]. Besides, the IC50 under setting [1] was over 10000 nM.
In the case of `Cc1nc(N2CCC3(CC2)COC(C)C3N)c(CO)nc1Sc1ccnc(N)c1Cl` (stereo not drawn), the viability, T/C is 105% and 96.7% and 89% (compound 0.00949 µM); 92.1% and 86.9% and 81.2% (compound 0.03 µM); 85.7% and 86% and 78.7% (compound 0.0949 µM); 92% and 75.2% and 66.9% (compound 0.3 µM); 71.2% and 54.1% and 58.9% (compound 0.949 µM); 54.9% and 42.4% and 43.2% (compound 3 µM). In addition, the IC50 (curve of compound) was > 3000 nM and 1520 nM and 1800 nM.
With `Cn1ncnc1[C@H]1c2n[nH]c(=O)c3cc(F)cc(c23)N[C@@H]1c1ccc(F)cc1`, the viability, T/C by setting is: (compound 0.000316 µM) 84.6% and 103% and 102%; (compound 0.001 µM) 85.7% and 93.6% and 83.1%; (compound 0.00316 µM) 83.3% and 95.1% and 85%; (compound 0.01 µM) 73.3% and 73.7% and 87.7%; (compound 0.0316 µM) 66.1% and 69.2% and 73.8%; (compound 0.1 µM) 67.4% and 65.3% and 60.4%. In addition, the half-inhibitory concentration (IC50) (curve of compound) was over 100 nM.
As for `NC(=O)C(=Cn1cnc(-c2cc(C(F)(F)F)cc(C(F)(F)F)c2)n1)c1cncnc1`, the viability, T/C by setting is: (compound 0.000949 µM) 88.9% and 102% and 89.1%; (compound 0.003 µM) 93.4% and 99.6% and 101%; (compound 0.00949 µM) 79.4% and 90.6% and 81.3%; (compound 0.03 µM) 73.1% and 71.5% and 74%; (compound 0.0949 µM) 49.7% and 40.1% and 50.4%; (compound 0.3 µM) 13.5% and 13.7% and 12.4%. Besides, the IC50 (curve of compound) was 94.2 nM and 65.9 nM and 94.4 nM.
Turning to `NC1CCC(NC2CC2c2ccccc2)CC1` (stereo not drawn), the viability, T/C is 89% and 106% and 94% (compound 0.000316 µM); 76.7% and 90.3% and 92.3% (compound 0.001 µM); 75.3% and 86% and 84.9% (compound 0.00316 µM); 89% and 91.7% and 90.7% (compound 0.01 µM); 93.3% and 81.8% and 96.3% (compound 0.0316 µM); 88.3% and 94.6% and 95.1% (compound 0.1 µM). For the same compound, the IC50 (curve of compound) is over 100 nM.
Turning to `O=C(c1cc(Cc2n[nH]c(=O)c3ccccc23)ccc1F)N1CCN(C(=O)C2CC2)CC1`, the viability, T/C was 83.7% and 85.7% and 88.2% (compound 0.0316 µM); 101% and 95% and 86.5% (compound 0.1 µM); 76.7% and 88.8% and 89.9% (compound 0.316 µM); 83.8% and 84.5% and 81.4% (compound 1 µM); 69.5% and 85.8% and 85.3% (compound 3.16 µM); 52.3% and 55.7% and 50% (compound 10 µM). In addition, the IC50 (curve of compound) is over 10000 nM.
`O=C(c1ccc(F)c(F)c1Nc1ccc(I)cc1F)N1CC(O)([C@@H]2CCCCN2)C1`: the viability, T/C reads like this: (compound 0.00316 µM) 92.8% and 93% and 99.5%; (compound 0.01 µM) 111% and 90% and 99.1%; (compound 0.0316 µM) 108% and 106% and 90.2%; (compound 0.1 µM) 124% and 100% and 114%; (compound 0.316 µM) 98.4% and 90% and 111%; (compound 1 µM) 57.7% and 54.8% and 65.7%. Besides, the IC50 (curve of compound) was over 1000 nM.
